According to patent publication US12331056B2, “SHP2 phosphatase inhibitors and methods of use thereof” (Relay Therapeutics, Inc., priority 2018, dated 2025):
pIC50: −log10 of the molar value. Counter-ions that a name gives are not always drawn.

Each molecule was assayed against T1, SHP2 (Homo sapiens, UniProt Q06124) (assay: SHP2 allosteric inhibition assay (DiFMUP prompt fluorescence)). Conditions: 0.25 nM SHP2 activated with 0.5 μM peptide IRS1_pY1172(dPEG8)pY1222; substrate DiFMUP 100 μM.
T1 sequence (Q06124 1-593): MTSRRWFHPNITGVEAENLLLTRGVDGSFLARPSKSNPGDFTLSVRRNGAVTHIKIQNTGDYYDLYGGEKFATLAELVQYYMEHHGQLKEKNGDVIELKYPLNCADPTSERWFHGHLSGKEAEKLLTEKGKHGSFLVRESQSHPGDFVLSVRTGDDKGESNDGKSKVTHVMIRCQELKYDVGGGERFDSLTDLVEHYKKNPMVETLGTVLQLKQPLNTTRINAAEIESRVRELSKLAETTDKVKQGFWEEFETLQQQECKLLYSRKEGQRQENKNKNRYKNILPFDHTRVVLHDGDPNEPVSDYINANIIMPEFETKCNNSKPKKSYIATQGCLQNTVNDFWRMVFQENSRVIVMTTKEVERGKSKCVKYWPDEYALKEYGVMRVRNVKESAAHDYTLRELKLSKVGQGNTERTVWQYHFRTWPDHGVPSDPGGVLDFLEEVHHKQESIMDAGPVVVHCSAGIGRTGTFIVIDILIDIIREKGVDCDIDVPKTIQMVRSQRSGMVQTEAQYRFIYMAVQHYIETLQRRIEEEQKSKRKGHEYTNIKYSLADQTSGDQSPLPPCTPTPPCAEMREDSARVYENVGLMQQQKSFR
Assay type: biochemical

SMILES | pIC50
Cc1nc(N2CCC3(CC2)Cc2ccccc2[C@@H]3N)c(CO)nc1-c1cccc(Cl)c1Cl (single isomer, unassigned) [Example 19] | 6.00 to 7.30
N[C@H]1c2ccccc2CC12CCN(c1cnc3c(-c4ccnc(Cl)c4F)n[nH]c3n1)CC2 (single isomer, unassigned) [Example 66] | 6.00 to 7.30
N#Cc1cccc2c1CC1(CCN(c3cnc4c(N5CCCc6ncccc65)n[nH]c4n3)CC1)[C@H]2N (single isomer, unassigned) [Example 116] | 5.00 to 6.00
N[C@@H]1c2ccccc2C[C@]12CC[C@@H](c1cnc3c(N4CCCc5ncccc54)n[nH]c3n1)CC2 (single isomer, unassigned) [Example 191, (1r, 3′S, 4S)-4-[3-(1,2,3,4-tetrahydro-1,5-naphthyridin-1-yl)-1H-pyrazolo[3,4-b]pyrazin-6-yl]-1′,3′-dihydrospiro[cyclohexane-1,2′-inden]-3′-amine] | 5.00 to 6.00
C[C@H](O)c1nc(Sc2ccnc(Cl)c2Cl)cnc1N1CCC2(CC1)Cc1ccccc1[C@H]2N (single isomer, unassigned) [Example 260] | < 5.00
N[C@@H]1c2ccccc2C[C@]12CC[C@H](c1cnc(Sc3ccnc(Cl)c3Cl)cn1)CC2 (single isomer, unassigned) [Example 275, (1s, 3′S, 4R)-4-{5-[(2,3-dichloropyridin-4-yl)sulfanyl]pyrazin-2-yl}-1′,3′-dihydrospiro[cyclohexane-1,2′-inden]-3′-amine] | 5.00 to 6.00
NC1c2ccccc2CC12CCC(c1cnc(SCC3CC3)cn1)CC2 (single isomer, unassigned) [Example 284, (1s, 1′R, 4S)-4-(5-((cyclopropylmethyl)thio)pyrazin-2-yl)-1′,3′-dihydrospiro[cyclohexane-1,2′-inden]-1′-amine] | 6.00 to 7.30
C[C@H](C(=O)N1CCC2(CC1)Cc1ccccc1[C@H]2N)c1ccc(F)cc1 (single isomer, unassigned) [Example 290] | > 7.30
Nc1nccc(Sc2ncc(N3CCC4(CC3)Cc3ccccc3[C@H]4N)cn2)c1Cl [Example 63] | 6.00 to 7.30
Cn1cnc2c(N3CCC4(CC3)Cc3ccccc3[C@H]4N)nccc21 [Example 184] | 6.00 to 7.30
N[C@@H]1c2ccccc2C[C@@]12C[C@H]1CC[C@@H](C2)N1c1cnc2c(N3CCCc4ncccc43)n[nH]c2n1 [Example 227] | < 5.00
Nc1nccc(Sc2cnc(N3[C@@H]4CC[C@H]3C[C@]3(Cc5ccccc5[C@H]3N)C4)cn2)c1Cl [Example 231] | < 5.00
Nc1nccc(Sc2cnc(N3[C@@H]4CC[C@H]3C[C@]3(C4)Oc4ccccc4[C@H]3N)cn2)c1Cl [Example 232] | > 7.30
CC(C)Sc1cnc(N2CCC3(CC2)Cc2ccccc2[C@H]3N)cn1 [Example 248, (3S)-1′-[5-(propan-2-ylsulfanyl)pyrazin-2-yl]-1,3-dihydrospiro[indene-2,4′-piperidin]-3-amine] | > 7.30
N[C@@H]1c2ccccc2CC12CCN(c1ccc(SCC3CC3)nc1)CC2 [Example 272, (S)-1′-(6-((cyclopropylmethyl)thio)pyridin-3-yl)-1,3-dihydrospiro[indene-2,4′-piperidin]-1-amine formate] | > 7.30
Cc1cnc2sc(N3CCC4(CC3)Cc3ccccc3[C@H]4N)nn12 [Example 293, (S)-1′-(5-methylimidazo[2,1-b][1,3,4]thiadiazol-2-yl)-1,3-dihydrospiro[indene-2,4′-piperidin]-1-amine] | > 7.30
